According to patent publication US20090176786A1, “Benzoylurea Compounds and Use Thereof” (priority 2005, published 2009):
Like-named read-outs stand apart in the source and are kept apart here.

Assays:
Format in all cases: in vivo
[1] = tested on: Plutella xylostella; experiment: Test Example 2: cabbage root immersion (systemic), dead pest rate of Plutella xylostella larvae; conditions: for pest or weed control at 5 ppm / pest or weed control at 25 ppm / pest or weed control at 1 ppm: Plutella xylostella, 120 h; for pest or weed control at 5 ppm: read-out: dead pest rate; for pest or weed control at 1 ppm: test concentration of 1 ppm
Experimental: In 0.25 mL of a mixture solution of Sorgen TW-20 (manufactured by Daiichi Industries Pharmaceuticals, Co., Ltd.) and acetone (mixture volume ratio; Sorgen TW-20:acetone=1:19), 2.5 mg of the present compound (1), (2), (3), (4), (7), (10), (11), (12), (16), (18), (19), (20), (21), (22), (25), (30), (36), (37), (41), (42), (52), (54), (56), (57), (60), (62), (105) or (109) was dissolved. The solution was diluted with ion-exchanged water so that the active ingredient concentration became to a predetermined concentration to prepare a pesticidal solution for test of the test compound. The root part of cabbages in the fourth leaf period were washed with tap water to remove soils, and then immersed in the pesticidal solution for test. After 5 days from immersion of the root part, the root part was removed, and the leaves and stems were put in a cup (volume; 180 mL). In the cup 10 second-instar larvae of Plutella xylostella were released, and the cup was stored at 24° C. After 5 days, the number of dead pests was counted, and the dead pest rate was calculated by the following equation:
(§1) Dead pest rate(%)=(the number of dead pests/the number of tested pests)×100
The test concentrations of the other present compounds were 25 ppm.

[2] = tested on: Frankliniella occidentalis; experiment: Test Example 4: spray on cucumber, control value against Frankliniella occidentalis larvae; conditions: 168 h, spray 20 ml/cup on cucumber, 30 larvae, seven days after spraying; for pest or weed control at 50 ppm: test concentration 50 ppm; for pest or weed control at 12.5 ppm: test concentration 12.5 ppm
Experimental: The obtained preparation was diluted with water so that the active ingredient concentration became to a predetermined concentration to prepare a spray solution for test. […] were planted in polyethylene cups, and were grown until the first true leaf was developed. The spray solution for test prepared above was sprayed at the rate of 20 ml/cup on the cucumber. After the pesticidal solution sprayed onto the cucumber was dried, the first true leaf was cut off and then placed on a filter paper (diameter: 70 mm) containing water in a polyethylene cup (diameter: 110 mm). On the cucumber leaf, 30 larvae of Frankliniella occidentalis were released, and the polyethylene cup was capped. Seven days after spraying, the number of pests surviving on the cucumber leaf was counted, and a control value was calculated by the following equation: Control value(%)={1−(Cb×Tai)/(Cai×Tb)}×100 wherein, each symbol has following meaning: Cb: the number of pests before treatment in a non-treated area Cai: the number of pests at the time of observation in a non-treated area Tb: the number of pests before treatment in a treated-area Tai: the number of pests at the time of observation in a treated-area. […] The test concentrations of the other present compounds were 50 ppm.

[3] = tested on: Spondoptela litura; experiment: Test Example 3: treated artificial diet (Insecta LF), dead pest rate of Spondoptela litura larvae; conditions: 144 h, 2 mL on Insecta LF diet, 5 fourth-instar larvae, after 6 days
Excerpt: Ten parts of the present compound (1) to (5), (7) to (13), (18) to (33), (35) to (49), (52) to (56), (58) to (61), (71), (73) to (77), (79), (80), (82), (83), (93), (94), (95), (96), (97), (100) to (109), (111), (112), (115), (117), (119), (121), or (123) to (133), 35 parts of white carbon containing 50 parts of polyoxyethylene alkyl ether sulfate ammonium salt, and 55 parts of water were mixed, and finely ground by a wet grinding method to obtain a preparation. The obtained preparation was diluted with water so that the active ingredient concentration became to 500 ppm to prepare a pesticidal solution for test. On the bottom of a polyethylene cup having a diameter of 5.5 cm, a filter paper having a diameter of 5.5 cm was placed, on which Insecta LF (Nippon Agriculture Industries, Co., Ltd.) sliced in a thickness of 6 mm and further cut half was laid, and to which 2 mL of the above-described pesticidal solution for test was added. After air-dried, 5 fourth-instar larvae of Spondoptela litura were released in the cup, and the cup was capped. After 6 days, the number of dead pests was counted, and the dead pest rate was calculated by the following equation:
as §1

[4] = test concentration of 5 ppm, root immersion 5 days, 10 second-instar larvae, after 5 days at 24° C.
[5] = test concentration 25 ppm, root immersion 5 days, 10 second-instar larvae, after 5 days at 24° C.
[6] = root immersion 5 days, 10 second-instar larvae, after 5 days at 24° C.

## CN(C(=O)NC(=O)c1c(F)cccc1F)c1ccc(SC(F)F)cc1F [(57)]
[1]; [4]
  pest or weed control at 5 ppm: 100%

## C#CCN(C(=O)c1c(F)cccc1F)C(=O)N(C)c1ccc(SC(F)(F)F)cc1F [(60)]
[1]; [5]
  pest or weed control at 25 ppm: 100%

## CN(C(=O)NC(=O)c1c(F)cccc1F)c1ccc(SC(F)(F)C(F)(F)C(F)(F)F)cc1F [(28)]
[2]
  pest or weed control at 50 ppm: 100%

## CN(C(=O)NC(=O)c1c(F)cccc1F)c1ccc(SC(F)(F)C(F)C(F)(F)F)cc1F (centres unmarked) [(31)]
[2]
  pest or weed control at 50 ppm: 100%

## CSCCN(C(=O)c1c(F)cccc1F)C(=O)N(C)c1ccc(SC(F)(F)F)cc1F [(73)]
[2]
  pest or weed control at 50 ppm: 100%

## CN(C(=O)NC(=O)c1c(F)cccc1F)c1ccc(SC(F)(F)F)cc1 [(7)]
[1]; [4]
  pest or weed control at 5 ppm: 100%
[2]
  pest or weed control at 12.5 ppm: 100%

## CN(C(=O)N(CC1CC1)C(=O)c1c(F)cccc1F)c1ccc(SC(F)(F)F)cc1F [(71)]
[3]
  pest or weed control at 500 ppm: 100%
[2]
  pest or weed control at 50 ppm: 100%

## CN(C(=O)c1c(F)cccc1F)C(=O)N(C)c1ccc(S(=O)(=O)C(F)(F)F)cc1F [(21)]
[1]; [6]
  pest or weed control at 1 ppm: 100%

## Cc1cc(SC(F)(F)C(F)(F)F)ccc1N(C)C(=O)N(C)C(=O)c1c(F)cccc1F [(106)]
[2]
  pest or weed control at 50 ppm: 100%

## CN(C(=O)N(C(=O)c1c(F)cccc1F)N1CCOCC1)c1ccc(SC(F)(F)F)cc1F [(79)]
[3]
  pest or weed control at 500 ppm: 100%

## CCN(C(=O)c1c(F)cccc1F)C(=O)N(C)c1ccc(SC(F)(F)F)cc1F [(56)]
[1]; [5]
  pest or weed control at 25 ppm: 100%
[2]
  pest or weed control at 50 ppm: 100%

## CN(C(=O)NC(=O)c1c(F)cccc1F)c1ccc(SC(F)(F)C(F)OC(F)(F)F)cc1F (centres unmarked) [(109)]
[1]; [5]
  pest or weed control at 25 ppm: 100%
[2]
  pest or weed control at 50 ppm: 100%

## CN(C(=O)c1c(F)cccc1F)C(=O)N(C)c1ccc(SC(F)(F)C(F)(F)F)cc1Cl [(108)]
[2]
  pest or weed control at 50 ppm: 100%

## CN(C(=O)c1c(Cl)cccc1Cl)C(=O)N(C)c1ccc(SC(F)(F)F)cc1F [(96)]
[3]
  pest or weed control at 500 ppm: 100%

## Cc1cc(SC(F)(F)F)ccc1N(C)C(=O)N(C)C(=O)c1c(F)cccc1F [(42)]
[1]; [5]
  pest or weed control at 25 ppm: 100%

## CN(C(=O)N(C(=O)c1c(F)cccc1F)C1CC1)c1ccc(SC(F)(F)F)cc1F [(69)]
[2]
  pest or weed control at 50 ppm: 100%

## CN(C(=O)NC(=O)c1c(F)cccc1F)c1ccc([S+]([O-])C(F)(F)C(F)F)cc1F (centres unmarked) [(24)]
[2]
  pest or weed control at 12.5 ppm: 100%

## CSc1ccc(N(C)C(=O)NC(=O)c2c(F)cccc2F)c(C(F)(F)F)c1 [(121)]
[3]
  pest or weed control at 500 ppm: 100%

## CN(C(=O)N(Cc1ccccn1)C(=O)c1c(F)cccc1F)c1ccc(SC(F)(F)F)cc1F [(76)]
[2]
  pest or weed control at 50 ppm: 100%

## Cc1cc(SC(F)(F)F)ccc1N(C)C(=O)NC(=O)c1c(F)cccc1F [(36)]
[1]; [4]
  pest or weed control at 5 ppm: 100%
[2]
  pest or weed control at 12.5 ppm: 100%

## CC(=O)N(C(=O)c1c(F)cccc1F)C(=O)N(C)c1ccc(SC(F)(F)F)cc1F [(52)]
[1]; [4]
  pest or weed control at 5 ppm: 100%

## CN(C(=O)NC(=O)c1c(F)cccc1F)c1ccc(SC(F)F)cc1Cl [(34)]
[2]
  pest or weed control at 50 ppm: 100%

## COc1cccc(CN(C(=O)c2c(F)cccc2F)C(=O)N(C)c2ccc(SC(F)(F)F)cc2F)c1 [(119)]
[3]
  pest or weed control at 500 ppm: 100%

## CN(C(=O)NC(=O)c1c(F)cccc1F)c1ccc(C(=O)OC(C)(C)C)cc1F [(37)]
[1]; [5]
  dead pest rate: 100%

## CN(C(=O)NC(=O)c1c(Cl)cccc1Cl)c1ccc(SC(F)(F)F)cc1F [(95)]
[3]
  pest or weed control at 500 ppm: 100%

## CN(C(=O)c1c(F)cccc1F)C(=O)N(C)c1ccc(SC(F)(F)C(F)OC(F)(F)F)cc1F (centres unmarked) [(110)]
[2]
  pest or weed control at 50 ppm: 100%

## Cc1cc(SC(F)(F)C(F)(F)F)ccc1N(C)C(=O)NC(=O)c1c(F)cccc1F [(105)]
[1]; [5]
  pest or weed control at 25 ppm: 100%
[2]
  pest or weed control at 50 ppm: 100%

## CN(C(=O)N(CCN1CCOCC1)C(=O)c1c(F)cccc1F)c1ccc(SC(F)(F)F)cc1F [(80)]
[3]
  pest or weed control at 500 ppm: 100%

## Cc1c(SC(F)(F)C(F)(F)F)ccc(N(C)C(=O)N(C)C(=O)c2c(F)cccc2F)c1C [(49)]
[2]
  pest or weed control at 50 ppm: 100%

## CN(C(=O)NC(=O)c1c(F)cccc1F)c1ccc(SC(F)(F)C(F)(F)F)cc1Cl [(107)]
[2]
  pest or weed control at 50 ppm: 100%

## CN(C(=O)c1c(F)cccc1F)C(=O)N(C)c1ccc(SC(F)(F)C(F)C(F)(F)F)cc1F (centres unmarked) [(47)]
[2]
  pest or weed control at 50 ppm: 100%

## CN(C(=O)c1c(F)cccc1F)C(=O)N(C)c1ccc([S+]([O-])C(F)(F)F)cc1F (centres unmarked) [(19)]
[1]; [6]
  pest or weed control at 1 ppm: 100%

## CN(C(=O)NC(=O)c1c(F)cccc1Cl)c1ccc(SC(F)(F)C(F)F)cc1F [(23)]
[2]
  pest or weed control at 12.5 ppm: 100%

## COCN(C(=O)c1c(F)cccc1F)C(=O)N(C)c1ccc(SC(F)(F)F)cc1F [(11)]
[1]; [5]
  pest or weed control at 25 ppm: 100%

## CN(C(=O)N(C(=O)c1c(F)cccc1F)S(C)(=O)=O)c1ccc(SC(F)(F)F)cc1F [(54)]
[1]; [5]
  pest or weed control at 25 ppm: 100%

## CCSc1ccc(N(C)C(=O)N(C)C(=O)c2c(F)cccc2F)c(F)c1 [(16)]
[1]; [5]
  pest or weed control at 25 ppm: 100%

## Cc1cc(SC(F)(F)C(F)F)ccc1N(C)C(=O)N(C)C(=O)c1c(F)cccc1F [(131)]
[2]
  pest or weed control at 50 ppm: 100%

## CN(C(=O)c1c(F)cccc1F)C(=O)N(C)c1ccc(SC(F)(F)C(F)(F)C(F)(F)F)cc1F [(22)]
[1]
  pest or weed control at 5 ppm: 100%
[2]; test concentration 3.2 ppm
  pest or weed control at 3.2 ppm: 100%

## CN(C(=O)c1c(F)cccc1Cl)C(=O)N(C)c1ccc(SC(F)(F)C(F)(F)C(F)(F)F)cc1F [(45)]
[2]
  pest or weed control at 50 ppm: 100%

## CN(C(=O)NC(=O)c1c(F)cccc1F)c1ccc(SC(F)(F)C(F)(F)F)cc1F [(30)]
[1]; [4]
  pest or weed control at 5 ppm: 100%
[2]
  pest or weed control at 50 ppm: 100%

## CN(C(=O)c1c(F)cccc1F)C(=O)N(C)c1ccc(S(=O)(=O)C(F)(F)C(F)F)cc1F [(40)]
[2]
  pest or weed control at 12.5 ppm: 100%

## CN(C(=O)NC(=O)c1c(F)cccc1F)c1ccc(S(=O)(=O)C(F)(F)C(F)F)cc1F [(25)]
[1]; [4]
  pest or weed control at 5 ppm: 100%
[2]
  pest or weed control at 12.5 ppm: 100%

## CCN(C(=O)N(C)C(=O)c1c(F)cccc1F)c1ccc(SC(F)(F)F)cc1F [(41)]
[1]; [5]
  pest or weed control at 25 ppm: 100%
[2]
  pest or weed control at 50 ppm: 100%

## CN(C(=O)NC(=O)c1c(F)cccc1F)c1ccc([S+]([O-])C(F)(F)F)cc1F (centres unmarked) [(18)]
[1]; [6]
  pest or weed control at 1 ppm: 100%

## CN(C(=O)NC(=O)c1c(F)cccc1Cl)c1ccc(SC(F)(F)C(F)(F)C(F)(F)F)cc1F [(29)]
[2]
  pest or weed control at 50 ppm: 100%

## CN(C(=O)c1c(F)cccc1F)C(=O)N(C)c1ccc(SC(F)(F)F)cc1Cl [(104)]
[2]
  pest or weed control at 50 ppm: 100%
